Experiment [1] relates to Escherichia coli. Briefly: Tested for the percent inhibition against N-acetyl-L-phenylalanyl tRNA-70S Escherichia coli ribosome poly-U complex at 3.8*10e-4M concentration. It is filed as functional.
For experiment [2], the system named is Escherichia coli. Briefly: Tested for the inhibitory activity against N-acetyl-L-phenylalanyl tRNA-70S Escherichia coli ribosome poly-U complex. The format is functional, organism-based.

As for `Cc1nc(O)nc(O)c1/C=C/C(=O)ON1C(=O)CCCC1=O`, the Inhibition in experiment [1] is on record as 20%.

Turning to `Cc1nc(O)nc(O)c1/C=C/C(=O)N(C)C`, in experiment [2], the Ki was found to be 350 µM.

`Cc1nc(O)nc(O)c1/C=C/C(=O)NC(CO)C(O)c1ccc([N+](=O)[O-])cc1` (centres undefined) yielded a Ki in experiment [2] of 3 µM.

`COc1ccc(C[C@H](N)C(=O)N[C@H]2[C@@H](O)[C@H](n3cnc4c(N(C)C)ncnc43)O[C@@H]2CO)cc1` [PUROMYCIN]: the Ki in experiment [2] was 220 µM.

Values taken from ChEMBL document CHEMBL1121942, “Sparsophenicol: a new synthetic hybrid antibiotic inhibiting ribosomal peptide synthesis” (J Med Chem, 1982).
